In the supplement of paper PMC10307832:

What was measured:
Assay in all cases: relative viability (nuclei count vs DMSO), 5 days (fraction); higher = more cells survive
Bortezomib + Linsitinib = compound: CC(C)C[C@H](NC(=O)[C@H](Cc1ccccc1)NC(=O)c1cnccn1)B(O)O [Bortezomib] + C[C@]1(O)C[C@@H](c2nc(-c3ccc4ccc(-c5ccccc5)nc4c3)c3c(N)nccn32)C1 [Linsitinib] (partner 1 µM)
Outline: (§1)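 Lung cancer cell lines were pin-tool dosed in 1536-well plates on the day after seeding, with either a lone drug or a fixed anchor-drug dose plus five library-drug doses (not always all listed) in √10 steps. Nuclei were counted on 4× images after 5 days. Relative viability is the ratio of treated-well to vehicle-well nuclei counts, with each value a median of duplicate plates.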

[1] = compound: CC1=CC(=NN1)NC2=CC(=NC(=N2)/C=C/C3=CC=CC=C3)N4CCN(CC4)C + CS(=O)(=O)N1CCN(Cc2cc3nc(-c4cccc5[nH]ncc45)nc(N4CCOCC4)c3s2)CC1 [Pictilisib] (partner 1 µM)
Outline: as §1

Obatoclax + Navitoclax = compound: COC1=CC(c2cc3ccccc3[nH]2)=N/C1=C\c1[nH]c(C)cc1C [Obatoclax] + CC1(C)CCC(c2ccc(Cl)cc2)=C(CN2CCN(c3ccc(C(=O)NS(=O)(=O)c4ccc(N[C@H](CCN5CCOCC5)CSc5ccccc5)c(S(=O)(=O)C(F)(F)F)c4)cc3)CC2)C1 [Navitoclax] (partner 0.5 µM)
Outline: as §1

Obatoclax + Linsitinib = compound: COC1=CC(c2cc3ccccc3[nH]2)=N/C1=C\c1[nH]c(C)cc1C [Obatoclax] + C[C@]1(O)C[C@@H](c2nc(-c3ccc4ccc(-c5ccccc5)nc4c3)c3c(N)nccn32)C1 [Linsitinib] (partner 1 µM)
Outline: as §1

Cell Line | relative viability (Bortezomib + Linsitinib; first compound 0.0002 µM) | relative viability (Bortezomib + Linsitinib; first compound 0.000632 µM) | relative viability (Bortezomib + Linsitinib; first compound 0.002 µM) | relative viability (Bortezomib + Linsitinib; first compound 0.006325 µM) | relative viability (Bortezomib + Linsitinib; first compound 0.02 µM) | relative viability ([1]; first compound 0.08 µM) | relative viability ([1]; first compound 0.253 µM) | relative viability ([1]; first compound 0.8 µM) | relative viability ([1]; first compound 2.53 µM) | relative viability ([1]; first compound 8 µM) | relative viability (Obatoclax + Navitoclax; first compound 0.01 µM) | relative viability (Obatoclax + Navitoclax; first compound 0.03162 µM) | relative viability (Obatoclax + Navitoclax; first compound 0.1 µM) | relative viability (Obatoclax + Navitoclax; first compound 0.3162 µM) | relative viability (Obatoclax + Navitoclax; first compound 1 µM) | relative viability (Obatoclax + Linsitinib; first compound 0.01 µM) | relative viability (Obatoclax + Linsitinib; first compound 0.03162 µM) | relative viability (Obatoclax + Linsitinib; first compound 0.1 µM) | relative viability (Obatoclax + Linsitinib; first compound 0.3162 µM) | relative viability (Obatoclax + Linsitinib; first compound 1 µM)
NCI-H1975 | 0.965 | 0.964 | 0.189 | 0.144 | 0.125 | 0.284 | 0.307 | 0.25 | 0.128 | 0.0893 | 1.18 | 1.1 | 0.975 | 0.943 | 1.01 | 0.988 | 0.989 | 0.99 | 0.939 | 0.971
NCI-H1993 | 0.683 | 0.766 | 0.733 | 0.499 | 0.58 | 0.817 |  | 0.744 | 0.808 | 0.599 | 1.04 | 0.816 | 1.03 | 0.867 | 0.982 | 0.754 | 0.772 | 0.712 | 0.737 | 0.623
NCI-H2009 | 1.12 | 1.22 | 1.18 | 0.0695 | 0.058 | 0.754 | 0.415 | 0.781 | 0.25 | 0.142 | 1.13 | 1.23 | 1.15 | 1.17 | 0.258 | 1.12 | 1.2 | 1.19 | 1.02 | 0.262
NCI-H2023 | 0.68 | 0.723 | 0.711 | 0.102 | 0.0845 | 0.203 | 0.266 | 0.197 | 0.0664 | 0.0528 | 0.96 | 1.02 | 0.911 | 0.906 | 0.612 | 0.624 | 0.648 | 0.635 | 0.608 | 0.279
NCI-H2085 | 0.901 | 0.901 | 0.726 | 0.262 | 0.145 | 0.437 | 0.39 | 0.431 | 0.18 | 0.236 | 1.14 | 1.11 | 1.13 | 0.704 | 0.728 | 0.969 | 0.85 | 0.856 | 0.602 | 0.523
NCI-H2087 | 0.944 | 1.15 | 0.764 | 0.11 | 0.215 | 0.828 | 0.542 | 0.877 | 0.447 | 0.141 | 0.9 | 0.857 | 0.866 | 0.438 | 0.196 | 0.949 | 0.773 | 0.748 | 0.429 | 0.264
NCI-H2126 | 0.74 | 0.711 | 0.68 | 0.738 | 0.374 | 0.499 | 0.461 | 0.522 | 0.482 | 0.338 | 0.837 | 0.839 | 0.875 | 0.887 | 0.908 | 0.684 | 0.713 | 0.722 | 0.712 | 0.705
NCI-H2228 | 0.671 | 0.717 | 0.506 | 0.157 | 0.133 | 0.433 | 0.547 | 0.468 | 0.065 | 0.0792 | 1.16 | 0.984 | 0.677 | 0.919 | 0.944 | 0.536 | 1.03 | 1.12 | 0.445 | 0.448
